Where two headings read alike, the source gives them in different places.
Experiments:
[1] = target: T1, human norepinephrine transporter (hNET) (Homo sapiens, UniProt P23975); assay: hNET inhibition, in vitro binding and functional studies
[2] = Binding assay panel for additional targets
[3] = system: ventral tegmental area (VTA) dopaminergic neurons; assay: Firing frequency of VTA dopaminergic neurons in acute brain slices (electrophysiology); assay type: cell-based, mouse; details: for firing frequency of VTA neurons: acute slices from male C57Bl6/J mice, current clamp; for reduction in firing frequency after pre-treatment with D2 receptor antagonist sulpiride: acute slices
Description: The firing frequency of ventral tegmental area (VTA) dopaminergic neurons (n=4-8 cells/experiment) in acute slice preparations was recorded using electrophysiology and analyzed. Brain slices (250 μm thickness) containing VTA from male C57Bl6/J mice were prepared using standard procedures. Slices were perfused with artificial cerebrospinal fluid (aCSF) and spontaneous action potentials were recorded from dopaminergic neurons in current clamp conditions using […] and pClamp10 (Axon Instruments; Revel, Proc. Natl. Acad. Sci. USA 108(20):8485-90 (2011)). […] In addition, the reduction in firing frequency by solriamfetol or TAAR1 agonist RO5256390 was antagonized by pre-treatment with the D2 receptor antagonist sulpiride (FIG. 3A-3B).

wild type mice = assay: Open field locomotor activity, wild type mice; assay type: in vivo, mouse; details: subcutaneous, solriamfetol 10, 30 or 100 mg/kg, amphetamine 2 mg/kg
Description: (§1) Open field locomotor activity was assessed using an automated Omnitech Digiscan (AccuScan Instruments, Columbus, OH).

[4] = target: human dopamine transporter (hDAT) (Homo sapiens, UniProt Q01959); assay: hDAT inhibition, in vitro binding and functional studies
Chain of human dopamine transporter (hDAT) (Q01959 whole entry): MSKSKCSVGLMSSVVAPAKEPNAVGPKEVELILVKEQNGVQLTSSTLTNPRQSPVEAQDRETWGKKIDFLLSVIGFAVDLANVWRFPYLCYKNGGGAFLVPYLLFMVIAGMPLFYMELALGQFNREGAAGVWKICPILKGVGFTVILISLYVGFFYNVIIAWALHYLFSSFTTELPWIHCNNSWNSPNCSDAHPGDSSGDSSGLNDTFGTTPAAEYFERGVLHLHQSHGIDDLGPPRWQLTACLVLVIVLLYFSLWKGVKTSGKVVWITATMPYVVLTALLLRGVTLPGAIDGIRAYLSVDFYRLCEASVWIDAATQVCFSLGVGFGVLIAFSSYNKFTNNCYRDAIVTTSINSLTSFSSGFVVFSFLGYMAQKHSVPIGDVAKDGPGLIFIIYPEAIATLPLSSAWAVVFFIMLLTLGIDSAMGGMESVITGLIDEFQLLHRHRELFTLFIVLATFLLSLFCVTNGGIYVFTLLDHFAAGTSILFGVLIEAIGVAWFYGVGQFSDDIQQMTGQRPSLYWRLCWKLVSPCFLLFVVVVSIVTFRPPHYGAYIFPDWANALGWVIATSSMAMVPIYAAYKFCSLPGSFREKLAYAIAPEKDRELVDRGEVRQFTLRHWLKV

[5] = system: dopamine transporter deficient (DAT-/-) mice; assay: Open field locomotor activity, DAT-/- mice (hyperlocomotion); assay type: in vivo, mouse; details: subcutaneous, solriamfetol 10, 30 or 100 mg/kg, amphetamine 2 mg/kg
Description: as §1

[6] = target: T1, human norepinephrine transporter (hNET); set-up: host or cells: unnamed cell lines or membrane preparations; details: data from published literature (footnote b); cited from earlier work

T1 sequence (P23975 whole entry): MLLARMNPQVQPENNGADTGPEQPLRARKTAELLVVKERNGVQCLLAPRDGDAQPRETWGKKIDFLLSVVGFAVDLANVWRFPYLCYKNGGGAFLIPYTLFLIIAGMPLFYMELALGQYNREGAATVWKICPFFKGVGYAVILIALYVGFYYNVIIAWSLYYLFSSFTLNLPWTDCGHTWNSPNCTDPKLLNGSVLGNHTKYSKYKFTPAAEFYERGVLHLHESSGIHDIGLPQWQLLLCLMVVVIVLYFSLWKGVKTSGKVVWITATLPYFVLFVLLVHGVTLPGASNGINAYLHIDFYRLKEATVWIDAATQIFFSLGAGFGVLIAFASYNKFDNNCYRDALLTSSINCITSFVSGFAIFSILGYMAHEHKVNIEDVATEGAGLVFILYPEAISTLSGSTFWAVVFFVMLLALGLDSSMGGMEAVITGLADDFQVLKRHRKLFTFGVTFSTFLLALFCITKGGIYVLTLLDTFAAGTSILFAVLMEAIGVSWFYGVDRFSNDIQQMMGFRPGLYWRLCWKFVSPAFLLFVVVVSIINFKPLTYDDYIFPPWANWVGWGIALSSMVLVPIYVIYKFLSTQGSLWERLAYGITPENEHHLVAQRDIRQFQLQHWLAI

NC(=O)C[S+]([O-])C(c1ccccc1)c1ccccc1 (centres unmarked) [Modafinil]
IC50 [1]: > 100 µM

NC(=O)OC[C@H](N)Cc1ccccc1 [Solriamfetol, (R)-2-amino-3-phenylpropyl carbamate]
IC50 [1]: 14.4 µM
additional targets in binding assay panel [2]: no additional targets were identified
firing frequency of VTA neurons [3]: inhibited firing frequency by VTA neurons in a dose-dependent manner
reduction in firing frequency after pre-treatment with D2 receptor antagonist sulpiride [3]: antagonized
locomotor activity (total distance traveled in 90 minutes) (wild type mice): did not increase locomotor activity
IC50 [4]: 3.21 µM
hyperlocomotion (total distance traveled in 90 minutes) [5]: reduced hyperlocomotion

(+)Methamphetamine
IC50 [6]: 0.0013 µM

CC[C@@H](C[C@H]1COC(N)=N1)c1ccccc1 [RO5256390]
firing frequency of VTA neurons [3]: inhibited firing frequency by VTA neurons in a dose-dependent manner
reduction in firing frequency after pre-treatment with D2 receptor antagonist sulpiride [3]: antagonized

CC(N)Cc1ccccc1 (centres unmarked) [amphetamine]
locomotor activity (total distance traveled in 90 minutes) (wild type mice): increase locomotor activity
hyperlocomotion (total distance traveled in 90 minutes) [5]: reduced hyperlocomotion

CCN(C[C@H]1COC(N)=N1)c1ccccc1 [ROS166017]
hyperlocomotion (total distance traveled in 90 minutes) [5]: reduced hyperlocomotion
